According to US20250281610A1, “P2RY2 ACTIVITY MODULATORS” (Deutsches Krebsforschungszentrum Stiftung des öffentlichen …, priority 2022, published 2025):

Test system: THP-1 cells
Test: Viability of THP-1 cells in co-culture with CD33-specific CAR-T cells (flow cytometry-based cell counting)
Design: species or system human
Settings: 5 μM AR-C
Experimental: FIG. 8. Effects of P2RY2 antagonist on T cells and cancer cells in T cell-cancer cell co-cultures. T cells transduced with CD33-specific CAR (CAR-T) were co-cultured with genetically edited THP-1 cells in the absence or presence of 5 μM AR-C 118925XX (AR-C) for 6-24 hours. Control cells: THP-1 cells transduced with non-targeting sgRNA and Cas9 (gNT); P2RY2 deficient cells: THP-1 cells transduced with P2RY2-targeting sgRNA and Cas9 (gP2RY2-3, gP2RY2-4); B7-H3 (CD276) deficient cells: THP-1 cells transduced with B7-H3-targeting sgRNA and Cas9 (gCD276-1); P2RY2 and B7-H3 double deficient cells: THP-1 cells transduced with P2RY2-targeting sgRNA, B7-H3-targeting sgRNA, and Cas9 (gCD276-1 gP2RY2-3 DKO, gCD276-1 gP2RY2-4 DKO); P2RY2 overexpression cells: THP-1 cells transduced with the open reading frame of P2RY2 (P2RY2-OE); B7-H3 overexpression cells: THP-1 cells transduced with the open reading frame of CD276 (CD276-OE). […]
FIG. 9. […] Control cells THP-1 cells transduced with non-targeting sgRNA and Cas9 (Ctrl.); P2RY2 overexpression cells: THP-1 cells transduced with the open reading frame of P2RY2 (P2RY2-OE). […]
The open reading frames of transcripts of P2RY2(ENST00000393597.7) or CD276(ENST00000318443.10), were ordered as a codon optimized gBlock Gene Fragment (Integrated DNA Technologies or Twist Bioscience) and cloned into a lentiviral vector containing a blasticidin selection cassette. […]
MART1-specific CD8+ T cells and MART1 epitope-expressing cancer cells were mixed at a ratio of 1:16 to 1:4. […] T cell activation was assessed by surface staining with anti-CD137-BV421 (4-1BB, Biolegend), anti-CD69-APC/Fire™ 750 (FN50, Biolegend), anti-CD25-AF700 (BC96, Biolegend) antibodies and intracellular staining with anti-IL-2-PE/Cy7 (MQ1-17H12, Biolegend), anti-IFN-7-BV421 (4S.B3, Biolegend), anti-TNF-α-BV785 (MAb11, Biolegend) antibodies, followed by flow cytometry analysis. […] The viability of cancer cells that grow in suspension including THP-1 cells was assessed by flow cytometry-based absolute cell counting using AccuCount beads (Spherotech). […]

**Q.** What does the source list for `Cc1ccc2c(c1)C=Cc1cc(C)ccc1C2c1cn(Cc2ccc(C(=O)Nc3nn[nH]n3)o2)c(=O)[nH]c1=S` [AR-C 118925XX]?
**A.** viability of P2RY2 proficient THP-1 cells (6-24 hours, co-culture with CD33-specific CAR-T cells (FIG. 8)): reduced; viability of tumor cells upon P2RY2 deletion (P2RY2 deficient THP-1 cells, CAR-T cell-THP-1 cell coculture (FIG. 8)): does not influence
